Assay results from patent publication US20150105252A1, “SUBSTITUTED PYRAZOLES AS HERBICIDES” (E I DU PONT DE NEMOURS AND COMPANY, priority 2013, published 2015).

Columns and labels:
oilseed rape = assay: Test D preemergence; format: in vivo, Brassica napus; conditions: for Plant response rating, Oilseed Rape: Preemergence, scale 0 to 100
Source text: (§1) Seeds of plant species selected from bluegrass (annual bluegrass, Poa annua), blackgrass (Alopecurus myosuroides), canarygrass (littleseed canarygrass, Phalaris minor), chickweed (common chickweed, Stellaria media), galium (catchweed bedstraw, Galium aparine), bromegrass, downy (downy bromegrass, Bromus tectorum), field poppy (Papaver rhoeas), field violet (Viola arvensis), foxtail, green (green foxtail, Setaria viridis), deadnettle (henbit deadnettle, Lamium amplexicaule), ryegrass, Italian (Italian ryegrass, Lolium multiflorum), kochia (Kochia scoparia), lambsquarters (Chenopodium album), oilseed rape (Brassica napus), pigweed (redroot pigweed, Amaranthus retroflexus), chamomile (scentless chamomile, Matricaria inodora), speedwell (bird's-eye speedwell, Veronica persica), barley, spring (spring barley, Hordeum vulgare), wheat, spring (spring wheat, Triticum aestivum), buckwheat, wild (wild buckwheat, Polygonum convolvulus), mustard, wild (wild mustard, Sinapis arvensis), oat, wild (wild oat, Avena fatua), radish, wild (wild radish, Raphanus raphanistrum), windgrass (Apera spica-venti), Russian thistle (Salsola kali), barley, winter (winter barley, Hordeum vulgare), and wheat, winter (winter wheat, Triticum aestivum) were planted into a silt loam soil and treated preemergence with test chemicals formulated in a non-phytotoxic solvent mixture which included a surfactant.
(§2) At the same time, these species were planted in pots containing Redi-Earth® planting medium (Scotts Company, 14111 Scottslawn Road, Marysville, Ohio 43041) comprising spaghnum peat moss, vermiculite, wetting agent and starter nutrients and treated with postemergence applications of the test chemicals formulated in the same manner. Plants ranged in height from 2 to 18 cm (1- to 4-leaf stage). Treated plants and controls were maintained in a controlled growth environment for 14 to 21 days after which time all species were compared to controls and visually evaluated. Plant response ratings, summarized in Table D, are based on a scale of 0 to 100 where 0 is no effect and 100 is complete control. A dash (-) response means no test result.

field violet = assay: Test D postemergence; format: in vivo, Viola arvensis; conditions: scale 0 to 100
In short: (§3)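 Postemergence activity was tested on plants at the 1- to 4-leaf stage (2–18 cm) grown in peat-based medium, and preemergence activity on seeds in silt loam, with chemicals in a surfactant-containing non-phytotoxic solvent. Controlled-environment growth lasted 14–21 days before visual 0–100 scoring.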

windgrass = assay: Test D postemergence; format: in vivo, Apera spica-venti; conditions: scale 0 to 100
Source text: as §1, §2

speedwell [1] = assay: Test D postemergence; format: in vivo, Veronica persica; conditions: scale 0 to 100
Source text: as §1, §2

mustard, wild = assay: Test D postemergence; format: in vivo, Sinapis arvensis; conditions: scale 0 to 100
In short: as §3

barley, winter = assay: Test D postemergence; format: in vivo, Hordeum vulgare; conditions: scale 0 to 100
In short: as §3

barley, spring = assay: Test D postemergence; format: in vivo, Hordeum vulgare; conditions: scale 0 to 100
In short: as §3

chamomile [2] = assay: Test D postemergence; format: in vivo, Matricaria inodora; conditions: scale 0 to 100
In short: as §3

radish, wild = assay: Test D postemergence; format: in vivo, Raphanus raphanistrum; conditions: scale 0 to 100
In short: as §3

bluegrass = assay: Test D preemergence; format: in vivo, Poa annua; conditions: for Plant response rating, Bluegrass: Preemergence, scale 0 to 100
Source text: as §1, §2

oat, wild [3] = assay: Test D postemergence; format: in vivo, Avena fatua; conditions: scale 0 to 100
Source text: as §1, §2

lambsquarters = assay: Test D preemergence; format: in vivo, Chenopodium album; conditions: for Plant response rating, Lambsquarters: Preemergence, scale 0 to 100
Source text: as §1, §2

oat, wild [4] = assay: Test D preemergence; format: in vivo, Avena fatua; conditions: for Plant response rating, Oat, Wild: Preemergence, scale 0 to 100
Source text: as §1, §2

canarygrass [5] = assay: Test D postemergence; format: in vivo, Phalaris minor; conditions: scale 0 to 100
Source text: as §1, §2

speedwell [6] = assay: Test D preemergence; format: in vivo, Veronica persica; conditions: for Plant response rating, Speedwell: Preemergence, scale 0 to 100
Source text: as §1, §2

canarygrass [7] = assay: Test D preemergence; format: in vivo, Phalaris minor; conditions: for Plant response rating, Canarygrass: Preemergence, scale 0 to 100
Source text: as §1, §2

blackgrass = assay: Test D postemergence; format: in vivo, Alopecurus myosuroides; conditions: scale 0 to 100
Source text: as §1, §2

chamomile [8] = assay: Test D preemergence; format: in vivo, Matricaria inodora; conditions: for Plant response rating, Chamomile: Preemergence, scale 0 to 100
Source text: as §1, §2

wheat, winter = assay: Test D preemergence; format: in vivo, Triticum aestivum; conditions: for Plant response rating, Wheat, Winter: Preemergence, scale 0 to 100
In short: as §3

wheat, spring = assay: Test D preemergence; format: in vivo, Triticum aestivum; conditions: for Plant response rating, Wheat, Spring: Preemergence, scale 0 to 100
In short: as §3

[9] = 16 g ai/ha, taken as preemergence

SMILES: O=C(NC1CC1)c1cc(CCF)n(Cc2ccnc(C(F)(F)F)c2)n1 [Compound 176]
- Plant response rating (scale 0 to 100), Oilseed Rape (oilseed rape; [9]): 0
- Plant response rating, Oilseed Rape (oilseed rape; 62 g ai/ha): 35
- Plant response rating, Oilseed Rape (oilseed rape; 125 g ai/ha): 65
- Plant response rating, Field Violet (field violet; Postemergence, 16 g ai/ha): 35
- Field Violet plant response rating (field violet; Postemergence, 31 g ai/ha): 50
- Field Violet plant response rating (field violet; Postemergence, 125 g ai/ha): 70
- Field Violet plant response rating (field violet; postemergence, 62 g ai/ha): 50
- Plant response rating, Windgrass (windgrass; Postemergence, 16 g ai/ha): 5
- Windgrass plant response rating (windgrass; Postemergence, 31 g ai/ha): 15
- Windgrass plant response rating (windgrass; Postemergence, 125 g ai/ha): 25
- Windgrass plant response rating (windgrass; postemergence, 62 g ai/ha): 15
- Plant response rating, Speedwell (speedwell [1]; Postemergence, 16 g ai/ha): 50
- Speedwell plant response rating (speedwell [1]; Postemergence, 31 g ai/ha): 70
- Speedwell plant response rating (speedwell [1]; Postemergence, 125 g ai/ha): 70
- Speedwell plant response rating (speedwell [1]; postemergence, 62 g ai/ha): 70
- Plant response rating, Mustard, Wild (mustard, wild; Postemergence, 16 g ai/ha): 25
- Mustard, Wild plant response rating (mustard, wild; Postemergence, 31 g ai/ha): 55
- Mustard, Wild plant response rating (mustard, wild; Postemergence, 125 g ai/ha): 70
- Mustard, Wild plant response rating (mustard, wild; postemergence, 62 g ai/ha): 55
- Barley, Winter plant response rating (barley, winter; Postemergence, 16 g ai/ha): 0
- Barley, Winter plant response rating (barley, winter; Postemergence, 31 g ai/ha): 10
- Barley, Winter plant response rating (barley, winter; Postemergence, 125 g ai/ha): 20
- Barley, Winter plant response rating (barley, winter; postemergence, 62 g ai/ha): 10
- Barley, Spring plant response rating (barley, spring; Postemergence, 16 g ai/ha): 0
- Barley, Spring plant response rating (barley, spring; Postemergence, 31 g ai/ha): 10
- Barley, Spring plant response rating (barley, spring; Postemergence, 125 g ai/ha): 15
- Barley, Spring plant response rating (barley, spring; postemergence, 62 g ai/ha): 10
- Plant response rating, Chamomile (chamomile [2]; Postemergence, 16 g ai/ha): 10
- Chamomile plant response rating (chamomile [2]; Postemergence, 31 g ai/ha): 15
- Chamomile plant response rating (chamomile [2]; Postemergence, 125 g ai/ha): 35
- Chamomile plant response rating (chamomile [2]; postemergence, 62 g ai/ha): 15
- Radish, Wild plant response rating (radish, wild; Postemergence, 31 g ai/ha): 65
- Radish, Wild plant response rating (radish, wild; Postemergence, 125 g ai/ha): 65
- Radish, Wild plant response rating (radish, wild; postemergence, 62 g ai/ha): 65
- Plant response rating (scale 0 to 100), Bluegrass (bluegrass; [9]): 0
- Plant response rating, Bluegrass (bluegrass; 31 g ai/ha): 0
- Plant response rating, Bluegrass (bluegrass; 62 g ai/ha): 10
- Plant response rating, Bluegrass (bluegrass; 125 g ai/ha): 20
- Plant response rating, Oat, Wild (oat, wild [3]; Postemergence, 16 g ai/ha): 5
- Oat, Wild plant response rating (oat, wild [3]; Postemergence, 31 g ai/ha): 15
- Oat, Wild plant response rating (oat, wild [3]; Postemergence, 125 g ai/ha): 20
- Oat, Wild plant response rating (oat, wild [3]; postemergence, 62 g ai/ha): 15
- Plant response rating (scale 0 to 100), Lambsquarters (lambsquarters; [9]): 0
- Plant response rating, Lambsquarters (lambsquarters; 62 g ai/ha): 65
- Plant response rating, Lambsquarters (lambsquarters; 125 g ai/ha): 95
- Plant response rating (scale 0 to 100), Oat, Wild (oat, wild [4]; [9]): 0
- Plant response rating, Oat, Wild (oat, wild [4]; 62 g ai/ha): 10
- Plant response rating, Oat, Wild (oat, wild [4]; 125 g ai/ha): 40
- Plant response rating, Canarygrass (canarygrass [5]; Postemergence, 16 g ai/ha): 5
- Canarygrass plant response rating (canarygrass [5]; Postemergence, 31 g ai/ha): 15
- Canarygrass plant response rating (canarygrass [5]; Postemergence, 125 g ai/ha): 20
- Canarygrass plant response rating (canarygrass [5]; postemergence, 62 g ai/ha): 15
- Plant response rating (scale 0 to 100), Speedwell (speedwell [6]; [9]): 15
- Plant response rating, Speedwell (speedwell [6]; 62 g ai/ha): 100
- Plant response rating, Speedwell (speedwell [6]; 125 g ai/ha): 100
- Plant response rating (scale 0 to 100), Canarygrass (canarygrass [7]; [9]): 0
- Plant response rating, Canarygrass (canarygrass [7]; 31 g ai/ha): 5
- Plant response rating, Canarygrass (canarygrass [7]; 62 g ai/ha): 25
- Plant response rating, Canarygrass (canarygrass [7]; 125 g ai/ha): 35
- Plant response rating, Blackgrass (blackgrass; Postemergence, 16 g ai/ha): 5
- Blackgrass plant response rating (blackgrass; Postemergence, 31 g ai/ha): 15
- Blackgrass plant response rating (blackgrass; Postemergence, 125 g ai/ha): 20
- Blackgrass plant response rating (blackgrass; postemergence, 62 g ai/ha): 15
- Plant response rating (scale 0 to 100), Chamomile (chamomile [8]; [9]): 5
- Plant response rating, Chamomile (chamomile [8]; 31 g ai/ha): 5
- Plant response rating, Chamomile (chamomile [8]; 62 g ai/ha): 10
- Plant response rating, Chamomile (chamomile [8]; 125 g ai/ha): 50
- Plant response rating (scale 0 to 100), Wheat, Winter (wheat, winter; [9]): 0
- Plant response rating, Wheat, Winter (wheat, winter; 62 g ai/ha): 0
- Plant response rating, Wheat, Winter (wheat, winter; 125 g ai/ha): 5
- Plant response rating (scale 0 to 100), Wheat, Spring (wheat, spring; [9]): 0
- Plant response rating, Wheat, Spring (wheat, spring; 62 g ai/ha): 0
- Plant response rating, Wheat, Spring (wheat, spring; 125 g ai/ha): 5
